The values that follow come from patent publication US20250129103A1, “METHODS FOR TREATMENT OF CANCER” (Frontier Medicines Corporation, priority 2022, published 2025).

Data set [1] in a line: Determination of kinetic solubility (pH 7.4). In kind it is physicochemical. As to conditions: phosphate buffer, pH 7.4, aqueous buffer, kinetic from dmso stock, 50 mM phosphate buffer pH 7.4, read-out: Ksol, pH 7.4. The method, boiled down: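 Solubility taken from filtrate peak areas on a calibration curve (HPLC-UV, LC-MS/MS). Before filtration and centrifugation, compound was shaken for 2 h at room temperature in pH 7.4 50 mM phosphate buffer.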

In data set [2] the target is KRAS G12C (GMPPNP-loaded) and cRAF (Ras-binding domain) interaction (Homo sapiens (Human), UniProt P01116, C118S/C51S/C80L/G12C). Briefly: Inhibition of KRAS G12C and cRAF binding (AlphaScreen). As to conditions: KRAS G12C loaded with GMPPNP, cRaf RBD, 2 hours preincubation; read-out: Raf-1 RBD K-Ras IC50. The method, boiled down:
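AlphaScreen readout (680 nm excitation, 570 nm emission) of RBD binding after a 60-90 min bead step at room temperature. This step follows 2 h compound exposure of GMPPNP-preloaded KRAS G12C in Hepes pH 7.4 buffer with MgCl2 and 10 μM GMPPNP.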

Data set [3] can be described thus: Determination of logD (1-octanol / phosphate buffer pH 7.4). The class given is physicochemical. As to conditions: 1-octanol/phosphate buffer, pH 7.4, pH 7.4, 1-octanol/phosphate buffer; read-out: Log D, pH 7.4. Summed up:
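Each phase analysed by LCMS after 1 h shaking at 800 rpm and centrifugation, room temperature. Phases were mutually saturated 1-octanol and 100 mM phosphate buffer at pH 7.4. LogD derived from the phase concentrations.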

The target in data set [4] is KRAS G12C (GMPPNP-loaded) and PI3Ka (Ras-binding domain) interaction (Homo sapiens (Human), UniProt P01116, C118S/C51S/C80L/G12C). Nature of the data set: Inhibition of KRAS G12C and PI3Ka binding (AlphaScreen). As to conditions: KRAS G12C loaded with GMPPNP, PI3Ka RBD, 2 hours preincubation; read-out: PI3K RBD K-Ras IC50. The method, boiled down: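 Biotin-AviTag Cys-light KRAS G12C (aa 1-169, C51S/C80L/C118S), GMPPNP-loaded, 1.5 nM, preincubated 2 h with compound, then His-tagged PI3Ka RBD (aa 157-300, 100 nM) plus AlphaScreen beads added for 60-90 min, RT. Buffer Hepes pH 7.4, 10 μM GMPPNP, 2% DMSO; 10-point 1:3 from 50 μM; 4-parameter IC50.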
KRAS G12C (GMPPNP-loaded) and PI3Ka (Ras-binding domain) interaction, sequence (P01116 other isoform, or with tags, fused parts or gaps G12C/C51S/C80L/C118S): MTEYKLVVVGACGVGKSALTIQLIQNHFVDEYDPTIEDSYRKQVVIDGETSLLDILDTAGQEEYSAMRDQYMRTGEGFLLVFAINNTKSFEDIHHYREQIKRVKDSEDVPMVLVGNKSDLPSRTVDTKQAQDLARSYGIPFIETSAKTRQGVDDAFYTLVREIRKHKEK
(In Alpha technology, singlet oxygen from a donor bead excites a nearby acceptor bead.)

Values after ≈ are worked out from the molar mass of the structure shown.

KRAS G12C (GMPPNP-loaded) and cRAF (Ras-binding domain) interaction, sequence (P01116 other isoform, or with tags, fused parts or gaps G12C/C51S/C80L/C118S): as above

By IC50 is commonly meant the concentration that gives 50% inhibition. With `N#CC[C@H]1CN(c2nc(OC[C@@]34CCCN3C[C@H](F)C4)nc3c(F)c(-c4cccc(Cl)c4C(F)(F)F)ncc23)CCN1C(=O)/C=C/CN1[C@@H]2CC[C@H]1COC2` [Compound 111, 2-((S)-1-((E)-4-((1R,5S)-3-oxa-8-azabicyclo[3.2.1]octan-8-yl)but-2-enoyl)-4-(7-(3-chloro-2-(trifluoromethyl)phenyl)-8-fluoro-2-(((2R,7aS)-2-fluorotetrahydro-1H-pyrrolizin-7a(5H)-yl)methoxy)pyrido[4,3-d]pyrimidin-4-yl)piperazin-2-yl)acetonitrile], the solubility kinetic at 2 h in data set [1] was 133 µg/mL (≈ 169 µM). Moreover, the IC50 in data set [2] and in data set [4] was below 10 nM throughout. The logD in data set [3] came out at 3.23.

Consider `N#CC[C@H]1CN(c2nc(OC[C@@]34CCCN3C[C@H](F)C4)nc3c(F)c(-c4cccc(Cl)c4C(F)(F)F)ncc23)CCN1C(=O)/C=C/CN1CCCOCC1` [Compound 113, 2-((S)-1-((E)-4-(1,4-oxazepan-4-yl)but-2-enoyl)-4-(7-(3-chloro-2-(trifluoromethyl)phenyl)-8-fluoro-2-(((2R,7aS)-2-fluorotetrahydro-1H-pyrrolizin-7a(5H)-yl)methoxy)pyrido[4,3-d]pyrimidin-4-yl)piperazin-2-yl)acetonitrile], for which the solubility kinetic at 2 h in data set [1] amounted to 124 µg/mL (≈ 160 µM). Further, the IC50 in data set [2] and in data set [4] was below 10 nM in each case. In addition, the logD in data set [3] worked out at 2.84.

Regarding `Cc1nccc(/C=C/C(=O)N2CCN(c3nc(OC[C@@]45CCCN4C[C@H](F)C5)nc4c3CCN(c3cccc5cccc(Cl)c35)C4)C[C@@H]2CC#N)n1` [Compound 123], the solubility kinetic at 2 h in data set [1] is 0.01 µg/mL (≈ 0.0138 µM). Moreover, the IC50 in data set [2] and in data set [4] was below 10 nM each time. In data set [3], the logD was 4.46.

`CC(C)c1noc(/C=C/C(=O)N2CCN(c3nc(OCC45CCCN4CCC5)nc4c3CNC(c3cccc5cccc(Cl)c35)C4F)C[C@@H]2CC#N)n1` (some centres unmarked) [Compound 124]: the solubility kinetic at 2 h in data set [1] is 0.23 µg/mL (≈ 0.311 µM). In addition, the IC50 in data set [2] and in data set [4] was 10 to 100 nM throughout. Further, the logD in data set [3] is 4.21.

For `CC(C)c1noc(/C=C/C(=O)N2CCN(c3nc(OCC45CCCN4CCC5)nc4c3CCN(c3cccc5ccc(F)c(Cl)c35)C4)C[C@@H]2CC#N)n1` [Compound 126], the solubility kinetic at 2 h in data set [1] was determined as 0.01 µg/mL (≈ 0.0135 µM). For the same compound, the IC50 in data set [2] and in data set [4] was 10 to 100 nM in each case. For the same compound, in data set [3], the logD was 4.24.

In the case of `Cc1nsc(/C=C/C(=O)N2CCN(c3nc(OC[C@@]45CCCN4C[C@H](F)C5)nc4c3CCN(c3cccc5cccc(Cl)c35)C4)C[C@@H]2CC#N)n1` [Compound 127], in data set [1], the solubility kinetic at 2 h is 0.01 µg/mL (≈ 0.0137 µM). In addition, the IC50 in data set [2] and in data set [4] was below 10 nM in each case. Moreover, in data set [3], the logD stood at 4.77.

As to `CC(C)c1noc(/C=C/C(=O)N2CCN(c3nc(OC[C@@]45CCCN4C[C@H](F)C5)nc4c3CCN(c3cccc5ccc(F)c(Cl)c35)C4)C[C@@H]2CC#N)n1` [Compound 128], the solubility kinetic at 2 h in data set [1] was found to be 0.01 µg/mL (≈ 0.0132 µM). Besides, the IC50 in data set [2] and in data set [4] was 10 to 100 nM in each case. Besides, the logD in data set [3] is 4.56.

For `CC(C)c1noc(/C=C/C(=O)N2CCN(c3nc(OC[C@]45CCCN4C[C@H](F)C5)nc4c3CCN(c3cccc5ccc(F)c(Cl)c35)C4)C[C@@H]2CC#N)n1` [Compound 131], in data set [1], the solubility kinetic at 2 h amounted to 0.01 µg/mL (≈ 0.0132 µM). For the same compound, the IC50 in data set [2] and in data set [4] was 10 to 100 nM in each case. Further, the logD in data set [3] worked out at 4.96.

On to `Cc1cc(N)nc([C@@H]2Cc3nc(OC[C@@]45CCCN4C[C@H](F)C5)nc(N4CCN(C(=O)/C=C/c5nc([C@H]6C[C@@H]6F)no5)[C@@H](CC#N)C4)c3C[C@H]2C)c1C(F)(F)F` [Compound 136], for which the solubility kinetic at 2 h in data set [1] was 0.02 µg/mL (≈ 0.0255 µM). The IC50 in data set [2] and in data set [4] was below 10 nM throughout. For the same compound, in data set [3], the logD was 4.37.

On to `Cc1nsc(/C=C/C(=O)N2CCN(c3nc(OC[C@@]45CCCN4C[C@H](F)C5)nc4c(F)c(-c5cccc6cccc(Cl)c56)ncc34)C[C@@H]2CC#N)n1` [Compound 138], for which the solubility kinetic at 2 h in data set [1] was 0.01 µg/mL (≈ 0.0135 µM). The IC50 in data set [2] and in data set [4] was below 10 nM throughout. Moreover, in data set [3], the logD turned out to be 3.9.

Take `Cc1nccc(/C=C/C(=O)N2CCN(c3nc(OCC45CCCN4CCC5)nc4c(F)c(-c5cccc6cccc(Cl)c56)ncc34)C[C@@H]2CC#N)n1` [Compound 139]: the solubility kinetic at 2 h in data set [1] turned out to be 107 µg/mL (≈ 150 µM). The 50% inhibitory concentration (IC50) in data set [2] is 10 to 100 nM; in data set [4] it was below 10 nM. Further, the logD in data set [3] was found to be 1.93.

For the compound `Cc1nccc(/C=C/C(=O)N2CCN(c3nc(OC[C@@]45CCCN4C[C@H](F)C5)nc4c(F)c(-c5cccc6cccc(Cl)c56)ncc34)C[C@@H]2CC#N)n1` [Compound 140], the solubility kinetic at 2 h in data set [1] is 1.86 µg/mL (≈ 2.53 µM). Besides, the IC50 in data set [2] and in data set [4] was below 10 nM in each case. Further, the logD in data set [3] was 3.45.

As to `Cc1nsc(/C=C/C(=O)N2CCN(c3nc(OCC45CCCN4CCC5)nc4c3CCN(c3cccc5ccc(F)c(Cl)c35)C4)C[C@@H]2CC#N)n1` [Compound 141], in data set [1], the solubility kinetic at 2 h came out at 84 µg/mL (≈ 115 µM). For the same compound, the IC50 in data set [2] and in data set [4] was below 10 nM throughout. Also, the logD in data set [3] was found to be 3.43.

For `Cc1nsc(/C=C/C(=O)N2CCN(c3nc(OCC45CCCN4CCC5)nc4c(F)c(-c5cccc6cccc(Cl)c56)ncc34)C[C@@H]2CC#N)n1` [Compound 143], the solubility kinetic at 2 h in data set [1] turned out to be 87.8 µg/mL (≈ 121 µM). Also, the IC50 in data set [2] and in data set [4] was below 10 nM throughout. Besides, the logD in data set [3] was determined as 2.39.

As for `Cc1nccc(/C=C/C(=O)N2CCN(c3nc(OC[C@@]45CCCN4C[C@H](F)C5)nc4c(F)c(-c5cccc6ccc(F)c(Cl)c56)ncc34)C[C@@H]2CC#N)n1` [Compound 147], in data set [1], the solubility kinetic at 2 h is 4.93 µg/mL (≈ 6.54 µM). The IC50 in data set [2] and in data set [4] was below 10 nM in each case. For the same compound, in data set [3], the logD amounted to 3.64.

`Cc1nccc(/C=C/C(=O)N2CCN(c3nc(OC[C@@]45CCCN4C[C@H](F)C5)nc4c(F)c(-c5nc(N)cc6cccc(Cl)c56)ncc34)C[C@@H]2CC#N)n1` [Compound 148]: in data set [1], the solubility kinetic at 2 h amounted to 83.8 µg/mL (≈ 111 µM). Further, the IC50 in data set [2] and in data set [4] was below 10 nM each time. The logD in data set [3] stood at 2.25.

For `CC(C)c1nccc(/C=C/C(=O)N2CCN(c3nc(OC[C@@]45CCCN4C[C@H](F)C5)nc4c(F)c(-c5cccc6cccc(Cl)c56)ncc34)C[C@@H]2CC#N)n1` [Compound 151], the solubility kinetic at 2 h in data set [1] was found to be 0.41 µg/mL (≈ 0.536 µM). Also, the IC50 in data set [2] and in data set [4] was below 10 nM each time. For the same compound, the logD in data set [3] worked out at 3.71.

Regarding `N#CC[C@H]1CN(c2nc(OC[C@@]34CCCN3C[C@H](F)C4)nc3c(F)c(-c4cccc5cccc(Cl)c45)ncc23)CCN1C(=O)/C=C/c1ccnc(C2CC2)n1` [Compound 154], the solubility kinetic at 2 h in data set [1] came out at 0.01 µg/mL (≈ 0.0131 µM). Besides, the IC50 in data set [2] and in data set [4] was below 10 nM each time. Besides, in data set [3], the logD worked out at 4.36.

With `Cc1nsc(/C=C/C(=O)N2CCN(c3nc(OCC45CCCN4CCC5)nc4c(F)c(-c5cccc6ccc(F)c(Cl)c56)ncc34)C[C@@H]2CC#N)n1` [Compound 156], the solubility kinetic at 2 h in data set [1] came to 84.5 µg/mL (≈ 114 µM). Moreover, the IC50 in data set [2] and in data set [4] was below 10 nM each time. Besides, in data set [3], the logD was 2.78.

For the compound `N#CC[C@H]1CN(c2nc(OC[C@@]34CCCN3C[C@H](F)C4)nc3c(F)c(-c4cccc5ccc(F)c(Cl)c45)ncc23)CCN1C(=O)/C=C/CN1CC2(COC2)C1` [Compound 161], in data set [1], the solubility kinetic at 2 h was 87.7 µg/mL (≈ 113 µM). For the same compound, the IC50 in data set [2] and in data set [4] was below 10 nM throughout. For the same compound, the logD in data set [3] was 2.75.

With `N#CC[C@H]1CN(c2nc(OCC34CCCN3CCC4)nc3c2CCN(c2cccc4cccc(Cl)c24)C3)CCN1C(=O)/C=C/CN1CCSCC1` [Compound 171], the solubility kinetic at 2 h in data set [1] is 108 µg/mL (≈ 149 µM). Moreover, the half-inhibitory concentration (IC50) in data set [2] and in data set [4] was below 10 nM each time. Besides, in data set [3], the logD was 3.3.

Regarding `C[C@@H]1CN(C/C=C/C(=O)N2CCN(c3nc(OC[C@@]45CCCN4C[C@H](F)C5)nc4c(F)c(-c5cccc6cccc(Cl)c56)ncc34)C[C@@H]2CC#N)C[C@H](C)O1` [Compound 186], the solubility kinetic at 2 h in data set [1] was found to be 89 µg/mL (≈ 115 µM). The IC50 in data set [2] and in data set [4] was 10 to 100 nM each time. Further, the logD in data set [3] was 3.54.

For `C[C@@H]1CN(C/C=C/C(=O)N2CCN(c3nc(OC[C@@]45CCCN4C[C@H](F)C5)nc4c(F)c(-c5cccc6cccc(Cl)c56)ncc34)C[C@@H]2CC#N)C[C@@H](C)O1` [Compound 187], in data set [1], the solubility kinetic at 2 h amounted to 84 µg/mL (≈ 109 µM). In addition, the IC50 in data set [2] and in data set [4] was below 10 nM throughout. Besides, the logD in data set [3] is 3.61.
